# What was measured:
# horticultural plants = conditions: several horticultural plants; cited from earlier work
# peach = conditions: low rate (0.08 mM); cited from earlier work
# physchem = conditions: water
# Experimental: Formulations of the present invention were prepared as described in Example 1 and were tested for hydrolysis half-life.
# Cotton = format: in vivo; conditions: mc column, mepiquat chloride 12 g/ha
# Text: This resulting composition was mixed with PIX® mepiquat chloride plant growth regulator (BASF Corporation) such that the mepiquat chloride was applied to cotton in field studies at a rate of 12 g/ha and the {[(isopropylidene)-amino]oxy}-acetic acid-2-(methoxy)-2-oxoethyl ester contained in the solvent with an emulsifier system was applied at 1 and 10 g/ha.
# cotton plants = conditions: approximately 62.5 to 500 g ai/ha assuming spray volume 500 l/ha; cited from earlier work
structure (smiles),measurement,setting,value
O=P(O)(O)CCCl [ethephon],effect on yields and hardiness,horticultural plants,increased the yields and hardiness of several horticultural plants
same,effect on bloom and side effects in peach,peach,significantly delayed bloom in peach and reduced side effects
COC(=O)COC(=O)CON=C(C)C [{[(isopropylidene)-amino]oxy}-acetic acid-2-(methoxy)-2-oxoethyl ester],half-life,physchem,12 to 21 days
C[N+]1(C)CCCCC1 [mepiquat chloride],Frequency of Positive Yield,Cotton,38%
same,Relative Yield (% compared to untreated),Cotton,102%
NCCOC=CC(N)C(=O)O (stereo not drawn) [aminoethoxyvinylglycine],improvement in a plant growth factor with increasing rate,cotton plants,"As the rate of AVG treatment increased, so did the improvement"
